Measurements as given in US6977264B2, “Substituted piperidines and methods of use” (Amgen Inc., priority 2001, dated 2005).
Counter-ions that a name gives are not always drawn.

Row | melting point | SMILES
1 | 191 °C (dec.) | Cl.O=C(N[C@H](Cc1ccc(Cl)cc1)C(=O)N1CCC(c2ccccc2-n2cc[nH]c2=O)CC1)[C@@H]1Cc2ccccc2CN1
2 | 190 to 200 °C | CS(=O)(=O)N(CC1CC1)c1ccccc1C1CCN(C(=O)[C@@H](Cc2ccc(Cl)cc2)NC(=O)[C@@H]2Cc3ccccc3CN2)CC1 (as salt: HCl) (hydrate or solvate) [Example 11, N-[(1R)-1-[(4-Chlorophenyl)methyl]-2-(4-{2-[(cyclopropylmethyl)-(methylsulfonyl)amino]-phenyl}piperidyl)-2-oxoethyl]((3S)(3-1,2,3,4-tetrahydroisoquinolyl))carboxamide]
3 | 181 °C (dec.) | CS(=O)(=O)Nc1ccccc1C1CCN(C(=O)[C@@H](Cc2ccc(Cl)c(Cl)c2)NC(=O)[C@@H]2Cc3ccccc3CN2)CC1 (as salt: HCl) [Example 10, ((3S)(3-1,2,3,4-Tetrahydroisoquinolyl))-N-[(1R)-1-[(3,4-dichlorophenyl)methyl]-2-(4-{2-[(methylsulfonyl)-amino]phenyl}piperidyl)-2-oxoethyl]carboxamide]
4 | 178 °C (dec.) | Cn1ccn(-c2ccccc2C2CCN(C(=O)[C@@H](Cc3ccc(Cl)cc3)NC(=O)[C@@H]3Cc4ccccc4CN3)CC2)c1=O (as salt: HCl) [Example 17, ((3S)(3-1,2,3,4-Tetrahydroisoquinolyl))-N-((1R)-1-[(4-chlorophenyl)methyl]-2-{4-[2-(3-methyl-2-oxo(4-imidazolinyl))phenyl]piperidyl}-2-oxoethyl)carboxamide]
